Among the data in patent publication US20100022559A1, “BISOXIMES AS FUNGICIDES” (BAYER CROPSCIENCE AG, priority 2006, published 2010) are logP values, retold here.

This series in a line: logP determination by HPLC on a reversed-phase column (C 18), EEC Directive 79/831 Annex V.A8. Format: physicochemical. As for the experimental part: The stated logP values were determined in accordance with EEC Directive 79/831 Annex V.A8 by HPLC (high performance liquid chromatography) on a reversed-phase column (C 18). Temperature: 43° C.
Where [1] appears, read: method marker [a] (footnote not shown), isomer A / isomer B / isomer mixture as noted in the cell.
The mark [2] stands for this setting: method marker [b], isomer A / isomer B / isomer mixture as noted in the cell.

For `C=C(CON=C(C)c1ccc[nH]1)CON=C(C)c1ccc[nH]1` [compound 564], the logP by setting is: (method marked [b] in Table 1) 3.23^[b]; (method marked [c] in Table 1) 3.20^[c].

For the compound `CC1=NOC(CON=C(C)c2cccc(C)n2)(CON=C(C)c2cccc(C)n2)C1` (stereo not shown) [compound 596], where the note is “method marked [b] in Table 1”, the logP was 2.20^[b].

Take `CC(=NOCC(C)CON=C(C)c1ccc(Cl)nc1)c1ccc(Cl)nc1` (stereo not shown) [compound 106]: under setting [1], the logP was 4.79^[a].

For the compound `CCC(=NOCC1(CON=C(CC)c2cc(C)cc(C)n2)CC1)c1cc(C)cc(C)n1` (mixture of isomers) [Compound 570], the logP (method marked [a] in Table 1) is 3.22^[a].

In the case of `CC(=NOCCCON=C(C)c1csc(Cl)n1)c1csc(Cl)n1` (mixture of isomers) [compound 232], the logP under setting [1] is 4.69^[a].

Consider `CC(=NOCC(C)CON=C(C)c1cccc([Si](C)(C)C)n1)c1ccccn1` (stereo not shown) [Compound 826], for which the logP is, setting by setting: (value marked [b]) 6.72^[b]; (value marked [c]) 7.29^[c].

`C/C(=N\OCCOCOCCO/N=C(\C)c1cccc(C)n1)c1cccc(C)n1` [Compound 216]: the logP under setting [2] is 2.02^[b].

With `CC(=NOCc1cccc(CON=C(C)c2ccccn2)c1)c1ccccn1` [compound 731], the logP (method marked [b] in Table 1) was 3.72^[b].

As for `CCOC(=O)C(C)(CON=C(C)c1cc(C)cc(C)n1)CON=C(C)c1cc(C)cc(C)n1` (stereo not shown) [compound 855], the logP reads like this: (value marked [b]) 2.79^[b]; (value marked [c]) 5.72^[c].

As for `Cc1cccnc1C(=NOCCCON=C(c1ncccc1C)C(C)C)C(C)C` (mixture of isomers) [compound 92], the logP under setting [1] was 4.13^[a].

`CC(=NOCC1(CON=C(C)c2ccc(C)c(C)n2)CC(C(C)(C)C)=NO1)c1ccc(C)c(C)n1` (stereo not shown) [compound 631]: for the setting “method marked [b] in Table 1”, the logP was 3.65^[b].

In the case of `CC(=NOCON=C(C)c1cccc(C)n1)c1cccc(C)n1` [compound 7], the logP under setting [2] is 2.39^[b].

On to `CCC(=NOCCCON=C(CC)c1ncccc1C)c1ncccc1C` (single isomer, unassigned) [compound 95], for which, under setting [1], the logP is 3.11^[a] (isomer A).

Take `CC(=NOCCCCCCON=C(C)c1sc(C)nc1C)c1cccc(C)n1` (single isomer, unassigned) [compound 542]: the logP (method marked [b] in Table 1) is 3.99^[b] (isomer A).

Take `CC(=NOCC(C)CON=C(C)c1ncccc1C)c1ncccc1C` (stereo not shown) [compound 128]: the logP under setting [1] was 3.12^[a].

For `C=C(CON=C(C)c1cccc(C(F)(F)F)c1)CON=C(C)c1cccc(C)n1` [compound 399], where the note is “value marked [b]”, the logP is 5.36^[b].

Regarding `N/C(=N\OCCCCO/N=C(\N)c1ncc(F)cc1F)c1ncc(F)cc1F` [compound 38], the logP under setting [2] was 2.45^[b].

As to `COCc1nc(C(N)=NOC/C=C/CON=C(N)c2nc(COC)c(C)c(COC)n2)nc(COC)c1C` (single isomer, unassigned) [compound 768], the logP (value marked [b]) was 1.68^[b] (isomer A).

As for `CC[Si](CC)(CON=C(C)c1cc(C)cc(C)n1)CON=C(C)c1cc(C)cc(C)n1` [Compound 787], the logP (value marked [a]) was 5.05^[a], the logP (value marked [b]) is 5.05^[b] and the logP (value marked [c]) is 7.36^[c].

As for `CC(=NOCC(C)(C)CON=C(C)c1cccc(C)n1)c1ccc(Cl)cc1` [compound 485], the logP (value marked [b]) is 6.22^[b].

In the case of `Cc1cccc(C(=NOCC(C)CON=C(c2cccc(C)n2)C(F)(F)F)C(F)(F)F)n1` (stereo not shown) [compound 214], under setting [2], the logP is 4.83^[b].

Consider `CC(=NOCCCCON=C(C)c1cccc(Cc2ccccc2)n1)c1cccc(C)n1` [compound 324], for which, under “value marked [b]”, the logP was 5.84^[b].

Turning to `Cc1cccc(C(=NOCCCON=C(c2cccc(C)n2)C(C)C)C(C)C)n1` (single isomer, unassigned) [compound 89], under setting [1], the logP is 4.45^[a] (isomer A).

On to `CC(=NOCC1(CON=C(C)c2nc(C)ccc2C)CCCC1)c1nc(C)ccc1C` (single isomer, unassigned) [Compound 763], for which the logP (value marked [b]) is 4.76^[b] and the logP (value marked [c]) is 6.32^[c].

Consider `CC(=NOCC(C)CON=C(C)c1cc(C)cc(C)n1)c1cccc(C)n1` (stereo not shown) [Compound 499], for which the logP (value marked [b]) was 2.76^[b].
